Test results as given in patent US8877483B2, “Dioxin elimination promoter” (priority 2002, dated 2014).

Test system: liver cytochrome P450
Assay: EPR spectra of rat liver after oral administration of PCB126 (construction of model animals)
Format: in vivo
Details: rats, single forced oral dose 0, 0.3, 3, 30 or 100 μg/kg bw in corn oil, liver isolated 24 hour after administration; FIG. 1
Description: When the EPR measurement is carried out with rat liver as an experimental animal, the resonance absorption of an iron atom contained in cytochrome P450 protein is observed at a position of g=2.40. When dioxin were administered to a rat, an abnormal resonance absorption which is not observed in untreated case appears as a signal at a position of g=2.49, in addition to the normal resonance absorptions. Since the intensity of the abnormal signal becomes higher according to increase of an amount of dioxins administered, it can be a living body index showing a degree of pollution.
As laboratory animals, rats to which PCB 126 (3,3′,4,4′,5-pentachlorobiphenyl) had been administered were prepared. The rats were 6-week-old Sprangue-Dawley (purchased from Nippon Charles River). After acclimation rearing for about one week, they forcedly administered with solutions containing an adequate concentration of PCB 126 (manufactured by Wellington Laboratories; purity: 99.99% or more) dissolved in commercially available corn oil (manufactured by Hayashi Chemicals) so that the amount of cPCB was 0 (control), 0.3, 3, 30 or 100 μg/kg body weight (bw) in the same amount of corn oil through a probe. PCB-administered rats were euthanized with ether 24 hour after the administration. […] Then, tissue fragments were analyzed by an EPR measurement method. […]

SMILES: Clc1ccc(-c2cc(Cl)c(Cl)c(Cl)c2)cc1Cl [cPCB, 3,3′,4,4′,5-pentachlorobiphenyl]
- abnormal EPR signal at g=2.49 in liver tissue fragments: intensity varies depending on the administered amount
